Data set [1] concerns the target GABA-A receptor; anion channel. Nature of the data set: Displacement of [35S]TBPS from Gamma-aminobutyric acid A (GABA-A) receptor of rat cerebral cortex. It is filed as tissue-based. On the technique in general: Loss of bound radioactivity is the signal in a displacement assay; it reports binding, not function.
A further data set is filed under the species Mus musculus. Nature of the data set: Effective dose required for anticonvulsant activity against pentylenetetrazole-induced seizures in mice. It is filed as functional.
The nature of data set [2]: Toxic dose at which 50 percent of the mice failed the rotarod toxicity test. It is filed as organism-based. Particulars: mouse, in vivo. (In the rotarod test animals must keep their balance on a rotating rod.)

As to `CC1CC(=O)C2OC1OC2(C)C` (stereo not drawn), in data set [1], the half-maximal inhibitory concentration (IC50) was determined as 3.02 mM. Further, the ED50 in the data set filed under Mus musculus came out at 131 mg/kg. In data set [2], the TD50 is > 300 mg/kg.

For the compound `C[C@@H]1CC(=O)[C@H]2O[C@@H]1OC2(C)C`, in data set [1], the half-inhibitory concentration (IC50) stood at 2.85 mM. In the data set listed under Mus musculus, this compound displayed a median effective dose (ED50) of 110 mg/kg.

With `CC1(C)OC2C=CC(=O)C1O2` (stereo not drawn), the ED50 in the data set listed under Mus musculus was > 300 mg/kg. For the same compound, the TD50 in data set [2] was < 100 mg/kg.

Turning to `CC1(C)OC2CCC(=O)C1O2` (stereo not drawn), the half-inhibitory concentration (IC50) in data set [1] is 5.09 mM. The same compound came in with an ED50 in the data set listed under Mus musculus of 192 mg/kg. In addition, the TD50 in data set [2] was > 300 mg/kg.

Turning to `C[C@H]1CC(=O)[C@@H]2O[C@H]1OC2(C)C`, the 50% inhibitory concentration (IC50) in data set [1] came to 3.09 mM. The compound further returned an ED50 in the data set listed under Mus musculus of 145 mg/kg.

Consider `CCC1(C)CCOC1=O` (stereo not drawn), for which the TD50 in data set [2] is > 500 mg/kg.

In turn, `CCC1CCCCC1=O` (stereo not drawn) gave an IC50 in data set [1] of 1.2 mM. In the data set listed under Mus musculus, this compound showed an ED50 of 140 mg/kg. Moreover, the TD50 in data set [2] came out at 245 mg/kg.

As to `CC12CCC(=O)C(O1)C(C)(C)O2` (stereo not drawn), the IC50 in data set [1] amounted to 3.13 mM. This compound gave an ED50 in the data set listed under Mus musculus of 247 mg/kg. Besides, in data set [2], the TD50 is > 300 mg/kg.

Consider `CC1CC(=O)C2OC1(C)OC2(C)C` (stereo not drawn), for which the concentration for half-maximal inhibition (IC50) in data set [1] turned out to be 2.31 mM. The compound further yielded an ED50 in the data set listed under Mus musculus of 140 mg/kg. In addition, in data set [2], the TD50 was > 300 mg/kg.

As for `C=CC(C)(C)c1cccc2[nH]c3c(c12)C[C@@H]1CC[C@@]2(O)C4=CC(=O)[C@@H]5O[C@@]4(CC[C@]2(C)[C@@]31C)OC5(C)C`, the IC50 in data set [1] worked out at 0.0043 mM.

A word on the IC50: it is the concentration needed to halve the response being measured. Lower therefore signals higher potency. What is called ED50 is the dose that gives a 50% effect, or the effect in half of the subjects. Low values mean an effect at a small dose, high ones a need for a large dose. What is called TD50 is the 50% point of the dose-response relation for the toxic effect studied. The low end stands for greater toxicity, the high end for lower toxicity.

The values are drawn from ChEMBL document CHEMBL1128119, “Partial structures of the fungal toxin aflatrem, methyl-substituted 6,8-dioxabicyclo[3.2.1]octan-2-ones have anticonvulsant activity” (Bioorg Med Chem Lett, 1995).
